Measured values as given in patent US10702526B2, “Inhibitors of immune checkpoint modulators and related methods” (eFFECTOR Therapeutics, Inc., priority 2015, dated 2020).
“Also recorded” adds a separate entry of the source.

Experiments:
[1] = system: IL-2 production in Jurkat T cells; test: IL-2 ELISA on supernatants of activated Jurkat T cells; assay type: cell-based, human; conditions: Jurkat T cells with PHA and PMA, 48 hours
Procedure: To examine the effect of MNK-specific inhibitors on PD-1 expression, Jurkat cells (Clone E6.1, ATCC, transformed T cells) were used, which express PD-1 when activated through T cell receptor (TCR) signaling. Briefly, Jurkat cells were grown in 1×RPMI with 1× Pen/Strep, and 10% FBS, then about 3×10^6 Jurkat cells were activated in presence of 1 μg/mL PHA (Sigma) and 50 ng/mL PMA (Sigma). Test Cells were treated simultaneously with various concentrations of MNK-specific inhibitor Compound 107 (0, 0.01, 0.1, 1, 3 and 10 μM). After 48 hours, culture supernatants were harvested and examined via sandwich ELISA for the presence of IL-2 using human IL-2 ELISA DuoSet® (R&D Systems, Minneapolis, Minn.). […] After fixation, cells were washed twice with flow buffer and re-suspended in flow buffer and assessed for fluorescence using BD Accuri C6 flow cytometer. Data were analyzed using the C6 cytometer software (BD Biosciences, San Jose, Calif.).

[2] = system: Jurkat cells; test: Jurkat T cell viability (fixable dead cell stain); assay type: cell-based
Procedure: (§1) To examine the effect of MNK-specific inhibitors on PD-1 expression, Jurkat cells (Clone E6.1, ATCC, transformed T cells) were used, which express PD-1 when activated through T cell receptor (TCR) signaling. Briefly, Jurkat cells were grown in 1×RPMI with 1× Pen/Strep, and 10% FBS, then about 3×10^6 Jurkat cells were activated in presence of 1 μg/mL PHA (Sigma) and 50 ng/mL PMA (Sigma). Test Cells were treated simultaneously with various concentrations of MNK-specific inhibitor Compound 107 (0, 0.01, 0.1, 1, 3 and 10 μM). After 48 hours, culture supernatants were harvested and examined via sandwich ELISA for the presence of IL-2 using human IL-2 ELISA DuoSet® (R&D Systems, Minneapolis, Minn.). The level of PD-1 on Jurkat cells was examined by incubating cells with fixable dead cell stain (1:20,000; BD Biosciences, San Jose, Calif.) for 15 minutes at 4° C., washed twice with flow staining buffer (1×PBS, 4% FBS and 1 mM EDTA), incubated with human FcR block, then contacted with allophycocyanin (APC) conjugated anti-PD-1 antibody (Biolegend, San Diego, Calif.) for 30 minutes at 4° C., washed two times with flow buffer, and finally cells were fixed with fixation buffer for 20 minutes at 4° C. After fixation, cells were washed twice with flow buffer and re-suspended in flow buffer and assessed for fluorescence using BD Accuri C6 flow cytometer. Data were analyzed using the C6 cytometer software (BD Biosciences, San Jose, Calif.).

[3] = system: IL-10 production in primary T cells; test: IL-10 production by activated primary T cells; assay type: cell-based, human
[4] = system: phospho-eIF4E; test: eIF4E phosphorylation in TMD8 cells (Western blot); assay type: cell-based, human
Procedure: (§2) The ability of MNK-specific inhibitor compounds to regulate the level of HLA class II proteins was evaluated in a diffuse large B-cell lymphoma (DLBCL) cell line, TMD8. Briefly, human DLBCL cell line TMD8 (ATCC), was cultured in RPMI media supplemented with penicillin G (100 U/ml), streptomycin (100 μg/ml), and 10% FBS in a humidified atmosphere of 5% CO2 maintained at 37° C. About 2-4×10^6 TMD8 cells were seeded in 10 cm plates 24 hours prior to drug treatment. The following day, cells were treated with either vehicle control (DMSO) or Compound 107 at the indicated concentration (FIG. 7). Cells were harvested 48 hours post-treatment.
(§3) Treated cells were harvested, washed with PBS and lysed in 1×RIPA buffer (Thermo Fisher) for 15 minutes at 4° C. Lysates were clarified by centrifugation for 15 min at 14,000×rpm and supernatants were collected. Protein concentration in the soluble fraction was determined using the BCA protein assay (Thermo Scientific). Proteins were resolved on 4-20% Bis-Tris gradient polyacrylamide gel (Invitrogen) and transferred to nitrocellulose membrane. […] The blots were washed, scanned, and specific proteins detected using the LI-COR Odyssey infrared imager. […]

[5] = system: HLA class II protein HLA-DQA1; test: HLA-DQA1 protein level in TMD8 cells (Western blot); assay type: cell-based, human
Procedure: as §2, §3

[6] = system: T effector (CD3+/CD8+) and T regulatory (CD4+/FOXP3+) cells; test: TE:Treg ratio in tumor infiltrating lymphocytes of CT26 allograft tumors (flow cytometry); assay type: in vivo, mouse; conditions: TILs after 4 days of treatment
Procedure: Mice having established CT26 tumors (100-200 mm^3) were treated with compound 107, anti-PD1 antibody or a combination of compound 107 and anti-PD-1 antibody, as described in Example 4. After 4 days of treatment, the mice were euthanized and tumors were excised. A single cell suspension was generated by dissecting excised tumors into fine pieces with a razor blade, incubating with collagenase, hyaluronidase and DNAse I (Worthington Biochemical, Lakewood N.J.) in RPMI, incubating in 1× trypsin-EDTA, and finally passaging through a 70 micron cell strainer filter (BD Biosciences, San Jose Calif.). […] For samples assessed for CD45/CD3/CD8, cells were washed twice with flow buffer and incubated with fixation buffer for 10 minutes at 4° C. […] Samples assessed for CD45/CD4 were further processed for intracellular staining of FOXP3 using an anti-FOXP3 antibody (FOXP3-PE, BD Biosciences) and the FOXP3/Transcription Factor staining buffer set (eBiosciences, San Diego Calif.) following the manufacturer's protocol. […] Data were collected and analyzed using a BD Accuri C6 flow cytometer (BD Biosciences, San Jose Calif.). The ratio of TE to Treg cells was calculated by determining the percentage of CD3^+/CD8^+ cells present in the CD45^+ lymphocyte population and dividing by the percentage of CD4^+/FOXP3^+ present from the same population.

[7] = system: PD-1 expression on Jurkat cells; test: PD-1 expression on PHA/PMA-activated Jurkat T cells (flow cytometry); assay type: cell-based, human
Procedure: as §1

[8] = Jurkat T cell assay, MNK-specific inhibitors

Question: With `Cc1cc(Nc2cc(N)ncn2)c(=O)n2c1C(=O)NC21CCCCC1.Cl` [Compound 107] as the compound, how does the IL-2 production [1] read?
Answer: did not alter cytokine production; also recorded: did not detectably alter IL-2 production

Question: What about the “Cell Death” value [2, 8] of the same compound?
Answer: − (− = 0-10%)

Question: What about the “cell viability (percentage of dead cells)” value ([2]; Jurkat cells with PHA and PMA) of the same compound?
Answer: no effect on cell viability; also recorded: unaffected

Question: What about the “% IL-10 Inhibition” value [3] of the same compound?
Answer: ++++ (++++ = 75-100%)

Question: What about the “expression/production of IL-10” value [3] of the same compound?
Answer: inhibited

Question: And the inhibition at 10 µM ([3]; Homo sapiens, T-cell, 10 μM, read-out: maximum inhibition of the production of IL-10)?
Answer: 96%

Question: And the “phosphorylation of eIF4E” value [4]?
Answer: potently inhibited

Question: What about the EC50 ([5]; Homo sapiens, TMD8, 48 h, read-out: EC50 of increase in HLA-DQA1 protein level) of the same compound?
Answer: ~300 nM

Question: And the HLA-DQA1 protein level ([5]; TMD8 cells, 48 hours, 300 nM or 10 μM)?
Answer: dose dependent increase

Question: What about the “average TE:Treg ratio” value [6] of the same compound?
Answer: 9.7

Question: What about the “% PD-1 + Inhibition” value [7, 8] of the same compound?
Answer: +++ (+++ = 50-75%)

Question: And the PD-1 expression ([7]; Jurkat cells with PHA and PMA, 0.01, 0.1, 1, 3 and 10 μM)?
Answer: reduced in a dose dependent manner

Question: What about the “reduction in the expression of PD-1 as compared to control” value ([7]; PHA/PMA activated Jurkat T cells, highest concentration, 48 hours) of the same compound?
Answer: ≤ 50%
